Laboratory results as given in patent US11207409B2, “X-RAY psoralen activated cancer therapy (X-PACT) with associated treatments” (priority 2017, dated 2021).

Test system: murine tumor cell lines (breast-4T1, glioma-CT2A, and sarcoma KP15B8)
Experimental: Guava Annexin V flow cell cytometry was used to quantify cytotoxicity in 3 murine tumor cell lines (breast-4T1, glioma-CT2A, and sarcoma KP15B8). In-vitro X-PACT studies were conducted on cells prepared in the following manner. Cells were incubated in appropriate growing media and buffers before being trypsinized and plated evenly onto twelve (12) well plates for 24 hours. About 20 minutes prior to X-PACT irradiation, the wells of each plate were exposed to the following combinations of additives: (1) control ˜cells only with no additives, (2) UVADEX only, (3) phosphors only, (4) UVADEX+phosphors. […] The plates were then irradiated with x-rays by placing the plate at a known distance from the x-ray source (e.g., 50 cm). […]
Two primary flow cytometry metrics were used to evaluate the X-PACT treatments, both determined at 48h after X-PACT treatment. […] The first metric is metabolically viable cell count (or cell viability) determined from the number of whole cells per well as determined using forward scattering (FSC). […] (All wells on a given plate receive the same dose.) The second metric is Annexin V (+) signal, which is the fraction of the metabolically viable cells which expressed a positive Annexin V signal as determined by flow cell cytometry, and include any cells advancing toward early or late apoptotic cell death. […]

## Zn2SiO4:Mn
  % Viability (1-Toxicity): 75%

## 3Ca3(PO4)2•Ca(Fl,Cl)2:Sb^3+,Mn^2+ [GTP 4300]
  % Viability (1-Toxicity): 70%
